# Test results from patent US8048880B2, “Treatment of cardiovascular disease and dyslipidemia using secretory phospholipase A2 (SPLA2) inhibitors and SPLA2 inhibitor combination therapies” (Anthera Pharmaceuticals, Inc., priority 2007, dated 2011).
# Experiments:
# [1] = Body weight of ApoE−/− mice on high fat diet during 16 weeks of A-002 (Example 1); type: in vivo; settings: oral gavage
# Experimental: (§1) Male ApoE^−/− mice were fed a high fat diet (21% fat, 0.15% cholesterol, 19.5% casein) ad libitum for two weeks in order to acclimate to the diet. Plasma cholesterol levels and body weight were measured in order to obtain baseline levels, and mice were randomized into three groups of 20 mice based on these measurements. After the acclimation period, mice remained on the high fat diet and were administered A-002 (30 mg/kg or 90 mg/kg) or vehicle only (5% acacia) twice a day for 16 weeks by oral gavage.
# (§2) Plasma cholesterol levels and body weight were measured at 4, 8, 12, and 16 weeks after the start of A-002 administration. Comparisons of measurements between test and control mice at each time period were performed using a two-way analysis of variance test (ANOVA) for repeated measures, followed by post-hoc Bonferroni test for significance.
# ApoE−/− mice [2] = assay: Atherosclerotic plaque coverage of the aorta in ApoE−/− mice (Example 1); type: in vivo; settings: at 16 weeks
# Experimental: as §1
# At the end of the 16th week, mice were sacrificed and plasma samples, heart tissue, and aortas from the heart to approximately 3 mm distal to the iliac bifurcation were collected. Aortas were placed on microscope slides and stained with Oil Red O for scanning and image analysis of atherosclerotic lesion size. Vessel images were captured using a Microtek Scanmaker 9600XL scanner (Microtek, Carson, Calif.) and Photoshop 6.0 software (Adobe Systems Inc., San Jose, Calif.). Atherosclerotic plaque coverage was quantified for the entire length of the vessel including the arch using Image-Pro Plus software. Vessels were also analyzed for plaque coverage in the descending abdominal aorta, starting in the region of the first intercostal branches to the iliac bifurcation (not including the arch). Plaque content was expressed as a percent of the aortic surface. […]
# ApoE−/− mice [3] = assay: Plasma total cholesterol levels in ApoE−/− mice on high fat diet (Example 1); type: in vivo; settings: at 16 weeks
# Experimental: as §1, §2
# CRP = assay: Serum CRP concentration in humans, A-002 twice a day (Example 4); type: in vivo, human; settings: week 8
# Experimental: 204 human subjects from the United States with CVD, specifically stable coronary artery disease, were randomized to receive placebo or A-002 via oral administration twice a day over an eight week administration period at dosages of 50 mg, 100 mg, 250 mg, or 500 mg. Levels of various lipids and inflammatory markers were measured at the outset of the trial and at the end of weeks four and/or eight. For data sets with a normal distribution, mean levels of lipids or inflammatory markers were analyzed. For data sets with non-normal distribution, median levels were analyzed. […] In addition, administration of A-002 decreased median levels of CRP (Table 11).
# Serum TG, CRP, and IL-6 levels were measured at eight weeks in 86 subjects from the ITT population diagnosed with metabolic syndrome.
# ApoE−/− mice [4] = assay: Plasma total cholesterol and HDL levels in ApoE−/− mice, A-002 and/or statin (Example 3); type: in vivo; settings: alone or plus 0.02 g/kg pravastatin, 12 weeks
# Experimental: Body weight, plasma total cholesterol, and plasma HDL levels were measured for six groups of twelve ApoE^−/− mice. The mice were then placed on a high fat diet for twelve weeks to allow for formation of significant fatty atherosclerotic plaques. The high fat diet was a modified version of the Western diet (TD.88137, Harlan Teklad, Madison, Wis.) consisting of casein (195 g/kg), DL-methionine (3 g/kg), sucrose (341.44 g/kg), corn starch (150 g/kg), anhydrous milkfat (210 g/kg), cholesterol (1.5 g/kg), cellulose (50 g/kg), mineral mix AlN-76 (Teklad; 35 g/kg), calcium carbonate (4 g/kg), vitamin mix (Teklad #40060; 10 g/kg), ethyoxyquin (antioxidant, 0.04 g/kg), and either 0.0156 g/kg (“low dose”) A-002 (Group A), 1.56 g/kg (“high dose”) A-002 (Group B), 0.02 g/kg pravastatin (Group C), low dose A-002 plus 0.02 g/kg pravastatin (Group D), high dose A-002 plus 0.02 g/kg pravastatin (Group E), or vehicle only (Group F). Mice were administered diets A-F in a blinded manner, and food was provided ad libitum. The diet was initially prepared based on the assumption that each mouse weighed 22.5 g and ate 4.5 g/day. Based on body weight and food consumption, the diet was modified over the 12 week course of treatment to adjust for a body weight of 26 g and a food intake of 2.5 g/day. The dosages of A-002 were selected to cover a range of 100-fold based on pharmacokinetics in ApoE^−/− mice as well as toxicology and previously observed efficacy in this model.
# Plasma total cholesterol and HDL levels were measured. Mean levels of total cholesterol were decreased in mice administered A-002 alone or in combination with statin (Table 3, FIG. 6). […] Mean levels of HDL were increased in mice administered A-002 at either dosage (Table 4). This increase was greater in mice administered high dose A-002 plus statin than in mice administered high dose A-002 or statin alone (Table 4 compare Group E vs. Groups B and C; FIG. 7).
# [5] = metabolic syndrome subpopulation
# [6] = high dose A-002 (1.56 g/kg diet)
# [7] = low dose A-002 (0.0156 g/kg diet)
structure (smiles),measurement,setting,value
"CCc1c(C(=O)C(N)=O)c2c(OCC(=O)OC)cccc2n1Cc1ccccc1 [A-002, [[3-(2-Amino-1,2-dioxoethyl)-2-ethyl-1-(phenylmethyl)-1H-indol-4-yl]oxy]acetic acid methyl ester]",Body weight increase over the 16 week test period,[1]; 30 mg/kg A-002 twice a day,~150%
same,Body weight increase over the 16 week test period,[1]; 90 mg/kg A-002 twice a day,~141%
same,plaque coverage in aortic tissue,ApoE−/− mice [2]; 30 mg/kg A-002 twice a day,6.3%
same,plaque coverage in aortic tissue,ApoE−/− mice [2]; 90 mg/kg A-002 twice a day,6.8%
same,change from baseline in total cholesterol,ApoE−/− mice [3]; 30 mg/kg A-002 twice a day,−10%
same,change from baseline in total cholesterol,ApoE−/− mice [3]; 90 mg/kg A-002 twice a day,−12%
same,% change vs. baseline (median [CRP]),CRP; [5],−12.50%
same,Change in median [CRP] vs. baseline,CRP; [5],-0.3 mg/L
same,% change vs. baseline (median [CRP]),"CRP; serum, ITT population",−13.33%
same,Change in median [CRP] vs. baseline,"CRP; serum, ITT population",-0.20 mg/L
same,Mean HDL concentration,ApoE−/− mice [4]; [6],17.167 mg/dL
same,Mean total cholesterol concentration,ApoE−/− mice [4]; [6],1301.750 mg/dL
same,Mean HDL concentration,ApoE−/− mice [4]; [7],21.000 mg/dL
same,Mean total cholesterol concentration,ApoE−/− mice [4]; [7],1355.545 mg/dL
